# Experimental data: patent US5057414A, “Method for the determination of the activity of serine proteases or serine protease inhibitors” (Behringwerke Aktiengesellschaft, priority 1987, dated 1991)
# Key:
# [1] = test system: human alpha-thrombin; test: Comparison Experiment 13: oxidation resistance of thrombin; type: biochemical; details: 500 nmol of chloramine T or 500 times the dose of H202
# [2] = test system: Plasmin/antiplasmin complexes; test: Comparison Experiment 14b: stability of plasmin/antiplasmin complexes to chloramine T; type: biochemical; details: in the reaction mixture, 37° C., 30 min
# Experimental: 30 pmol of alpha2 -antiplasmin and basic buffer A (control mixture) are incubated with 50 pmol of plasmin in 175 μl of basic buffer A for 5 min (37° C.). Addition of 500 μl of chloramine T of various concentrations in basic buffer A is followed by incubation for 30 min (37° C.), and the detection reaction is started by addition of 200 μl of 2.5 mM chromogenic plasmin substrate H-D-Phe-Tyr-Arg-ANBA in basic buffer A. After 3 min (37° C.), the reaction is stopped by addition of 100 μl of 8.5 M acetic acid, and the change in extinction at 405 nm is determined. No additional plasmin activity is generated even by chloramine T concentrations above 5 mM in the reaction mixture, that is to say plasmin/antiplasmin complexes are oxidation-resistant.
# [3] = test system: antithrombin III (AT III); test: Comparison Experiment 13: oxidative inactivation of antithrombin III; type: biochemical; details: 37° C., 15 min preincubation, pH 8.8
# Experimental: 50 pmol of AT III in 50 μl of 50 mM Tris, 100 mM NaCl, 0.1% (w/v) Triton×100, pH 8.8 buffer, are preincubated with increasing quantities of chloramine T or hydrogen peroxide in 50 μl of distilled water at 37° C. for 15 min. Then 3 pmol of human alpha-thrombin, 2.5 IU of heparin and 2 KIU of aprotinin in 500 μl of 100 mM Tris, 150 mM NaCl, pH 8.2, are added, and the mixture is incubated at 37° C. for 5 min. Addition of 500 μl of 0.4 mM H-D-CHA-But-ArgpNA was followed by further incubation for 3 min (37° C.). The reaction was stopped by 100 μl of 8.5 M acetic acid, and the change in extinction at 405 nm was determined.
# [4] = test system: urokinase; test: Comparison Experiment 3: stability of urokinase against chloramine T in the pure buffer system; type: biochemical
# Experimental: (§1) 50 μl of various samples, namely either basic buffer A (1) or PAI-deficient plasma (2) and PAI-rich plasma (3) 20 were incubated with 200 μl of solution C (plasminogen activator reagent) at 23° C. for 10 min. After addition of 500 μl of solution A (basic buffer), 50 μl of chloramine T of various concentrations, 300 μl of solution E (plasmin substrate reagent) and 100 μl of solution F (plasminogen reagent), the mixtures were incubated at 37° C. for 15 min. Substrate conversion was stopped by addition of 100 μl of 8.5 M acetic acid, and the extinction at 405 nm was determined. The oxidizing agent chloramine T used in this experiment was employed in solutions of the following concentrations.
# [5] = test system: plasminogen activator inhibitors; details: Lawrence and Loskutoff, Biochemistry 25, 6351-6355, 1986; cited from earlier work
# [6] = test system: PAI/u-PA complex; test: Comparison Experiment 3: stability of the PAI/u-PA complex against chloramine T; type: biochemical
# Experimental: as §1
# [7] = test system: u-PA/PAI complexes; test: Comparison Experiments 5 and 7: stability of u-PA/PAI complexes in the functional PAI determination; type: biochemical; details: in the reaction mixture; Comparison Experiment 5
# Experimental: (§2) Preincubation of 50 μl of sample with 200 μl of a variant of solution C (plasminogen activator dissolved in basic buffer U) at 37° C. for five minutes was followed by addition of 200 μl of a variant of plasminogen reagent (F), composed of 100 mM Tris-HCl pH 8.4, crosslinked polypeptides 1%, ^R Triton×100 0.1%, 100 mM NaCl without tran-examic acid, NaN3 0.01 % (basic buffer U) with 10 CTA-U/ml plasminogen and 200 μl of distilled water with 10 mM chloramine T, 3 mM tranexamic acid to the reaction mixture. The mixture was incubated at 37° C. for 5 min, and 500 μl of 0.6 mM chromogenic plasmin substrate HD-Nva-CHA-Lys-pNA in 480 mM NaCl (or, as a substitute, 200 mM CsCl) were added. The resultant linear change in extinction, delta A/min, at 405 nm was followed. The values found for normal plasma were about 0.2/min.
# The chloramine T concentrations added in the determination method specified in Example 3 were varied from 0 to 9 mmol/1 of reaction mixture. The assayed samples were either a) deficient in functional PAI (=PAI-deficientplasma) or b) rich in functional PAI. An optimum of generated plasmin activity is found on addition of between 1 and 4 mmol/1 chloramine T. The two plasma plots are parallel throughout the range, i.e. u-PA/PAI complexes are stable up to at least 9 mM chloramine T in the reaction mixture (=650 1). […]
# [8] = test system: plasmin; test: Comparison Experiment 11: effect of chloramine T and/or tranexamic acid on plasmin activity in the functional PAI assay; type: biochemical; details: for delta A/4 min: 405 nm
# Experimental: as §2, with “followed.” for “followed. The values found for normal plasma were about 0.2/min.”
compound,measurement,setting,value
"Cc1ccc(S(=O)(=O)NCl)cc1 [chloramine T, Chloramine T]",activity of thrombin at the dose inactivating AT III,[1],without the activity of thrombin being impaired
same,chloramine T concentration generating no additional plasmin activity,[2],above 5 mM
same,quantity of chloramine T inactivating 50 pmol of AT III,[3],500 nmol
same,chloramine T concentration attacking urokinase,[4],1 mM
same,concentration inactivating plasminogen activator inhibitors,[5],about 10 μM
same,chloramine T concentration at which the PAI/u-PA complex is stable (FIG. 3),[6],above 2 mmol/1
same,chloramine T concentration not resulting in cleavage of the PAI/u-PA complexes,"[6]; PAI-deficient vs PAI-rich plasma, in reaction mixture",above 2 mM
same,chloramine T concentration up to which u-PA/PAI complexes are stable,[7],at least 9 mM
same,increase in plasmin activity with alpha2-antiplasmin-deficient plasma compared with normal plasma,[8],20%
same,delta A/4 min,[8]; Normal plasma without alpha2-antiplasmin,271 mA
same,delta A/4 min,[8]; Normal plasma,225 mA
